# Experimental data: patent US8304238B2, “Cell culture medium and immobilized preparation of cell adhesion protein or peptide” (Nat'l Institute for Environmental Studies, priority 2003, dated 2012)
# “Also recorded” adds a separate entry of the source. Where no end group is shown, it is not given here.
# What was measured:
# [1] = system: alveolar type II epithelial cells (T2 cells); assay: Inhibition by free cell adhesion peptides of T2 cell adhesion to coated cell adhesion proteins FN, Col I, LN, VN; assay type: cell-based; conditions: for Inhibition of adhesion of T2 cells to FN, Col I, LN and VN by free peptide: free peptide 0.25 mg/ml, serum-free, 1 day
# Experimental: Commercially available FN, LN and VN, usually used as cell adhesion proteins at cell culture, were coated to wells at the concentrations of 5 μg/ml, 10 μg/ml and 10 μg/ml, respectively. In case of Col I (collagen type I), Col I at the concentration of 100 μg/ml, dissolved in 1 mM HCl, was poured into a well, left stand still for a while, and then the solution was removed and air-drying was conducted, and rinsed with the medium, before use. Next, 6×10^5 cells/ml of alveolar type II epithelial cells (T2 cells) suspended in the serum-free DMEM medium was seeded by 100 μl each on a 96-well to which the extracellular matrix was coated, and cultured in a CO2 incubator at 37° C. for 1 day. After the culture was finished, the cells were fixed with 100 μl of methanol for 5 minutes, and stained for 30 minutes with 50 μl of 0.4% crystal violet. Excessive staining was washed with water, then the number of cells adhered to FN, Col I, LN and VN, which had been coated to the wells, was counted based on the absorbance of cytoplasm (A595).
# On the other hand, among amino acid sequences of various LN molecules, the sequences that induce cell adhesion are known to be present. […] Then, the number of cells was counted in accordance with the method described above.
# [2] = system: alveolar type II epithelial cells (T2 cells); assay: Inhibition of T2 cell adhesion by free peptide different from the immobilized peptide substrate; assay type: cell-based; conditions: for Inhibition by free peptide of T2 cell adhesion to immobilized AG73: AG73 (etc.) immobilized; for Inhibition by free peptide of T2 cell adhesion to immobilized FIB-1: FIB-1 immobilized
# Experimental: Results obtained by adding the free peptides different from the immobilized peptides when T2 cells were cultured on the immobilized peptide prepared according to the method in Example 7, were shown in FIG. 8.
# When adding the free peptides that were the same as the immobilized peptides in the culture medium, the both (free and immobilized) peptides compete for syndecan of T2 cells and as a result, the cell adhesion is inhibited (see Example 7). So far, four types of syndecans are genetically known. Whether these syndecans are commonly owned or accommodated by each peptide, overlapping only by some degrees, otherwise mutually exclusive, was examined herein.
# [3] = system: alveolar type II epithelial cells (T2 cells); assay: Time course of cell adhesion/spreading of T2 cells on immobilized cell adhesion peptide substrates; assay type: cell-based
# Experimental: Culture was conducted by using the cell adhesion peptides immobilized on a well and T2 cells, for 1-24 hours according to the method in Example 8.
# As cell adhesion peptides, AG73 was used in B, E and M, FIB-1 was used in C, L and O, A3G72 was used in F, A4G82 was used in G and N, A5G71 was used in H, A5G77 was used in I, hA3G75 was used in J, and hA3G83 was used in K; FN was used as a standard substance in A and D.
# [4] = system: alveolar type II epithelial cells (T2 cells); assay: Binding strength (affinity) of immobilized LN peptides to T2 cells relative to immobilized FIB-1 (mixed immobilization, free FIB-1 competition); assay type: cell-based; design: key to Binding strength to T2 cells, Comprehensive evaluation: AA: extremely strongly binding/adhering; A: strongly binding/adhering; B: intermediately binding/adhering (as the same degree as FIB-1 peptide); C: more weakly binding/adhering than FIB-1 peptide; conditions: for Binding strength to T2 cells, Comprehensive evaluation: classification relative to FIB-1 peptide; for Binding strength to T2 cells, Ratio to FIB-1: inverse of mixing ratio at transitional midpoint, MMAC-coated well; for Binding strength to T2 cells, Ratio to FIB-1 / Mixing ratio at the transitional midpoint: FIB-1 0.25 mg/ml; for Mixing ratio at the transitional midpoint: peptide:FIB-1 co-immobilized, loss of inhibition by free FIB-1
# Experimental: Therefore, the amount of FIB-1 peptide was set at 0.25 mg/ml, and AG73 peptide was mixed therewith, while changing its concentration ratio, from 1/1.250 of FIB-1 in an amount which is 0.20 μg/ml, to ½ of FIB-1 in an amount which is 0.125 mg/ml, and the mixture was immobilized on a well wherein a hydrophobic binding-adsorptive polymer MMAC was coated. The amount of cell adhesion in the case where T2 cells were cultured under a serum-free condition for 1 day on the immobilized peptides is shown in FIG. 9, in comparison with the case where the culture was conducted on the immobilized FIB-1, which was set at 100%.
# However, in a case that the ratio of FIB-1:AG73 increased to 1:0.02, because T2 cells already transited to be adherent through the immobilized AG73 peptide, free FIB-1 peptide could no longer inhibit the cell adhesion. […] Likewise, with regard to A3G72 and A4G82 peptides, because the mixing ratio at the transitional midpoint=0.1, their binding strength to T2 cells is 10 times as much as that of FIB-1.
# The method used in FIGS. 8 and 9 is extremely effective as a convenient method by which a relative order can be measured concerning to the binding strength (affinity) of cell adhesion peptides and the strength of cell adhesion can be considered quantitatively.
# In Table 1, the classification is shown based on the results of the affinity (bonding/adhesion strength) between FIB-1 peptide containing RGD amino acid sequence of FN molecule, a binding site to integrin, and T2 cells: laminin α-chain G-domain peptides are classified into class AA, extremely strong binding/adhesion; class A, strong adhesion; class B, adhesion as the same degree as FIB-1; and class C, binding weaker than the described above.
# [5] = system: alveolar type II epithelial cells (T2 cells); assay: Static and forced stretching culture of T2 cells on MMAC-coated silicone wells with immobilized proteins or peptides; assay type: cell-based; conditions: for Reorientation of T2 cells under forced stretching: 1 day static, 1 day stretching (1dC-1dS), 25 percent, 15 times per minute; for Change of type II epithelial cells into a shape like type I epithelial cells: 3 days static, 3 days stretching (3dC-3dS)
# Experimental: A silicone well coated with MMAC was obtained by pouring 0.5 ml of ethanol solution of 50 μg/ml of MMAC (ISP, International Specialty Products, USA) into a silicone well with a groove of 20 mm×20 mm×10 mm, absorbing excess solution, and conducting air-drying.
# Into the silicone wells coated by the method described in Example 1, 10 μg/ml of cell adhesion protein solution of fibronectin (FN), laminin-1 (LN), dissolved in 0.1 M triethanolamine buffer solution of pH 8.8, or 0.25 mg/ml of cell adhesion peptide solution of FIB-1, AG73 was poured respectively, and the reaction was conducted for at least several hours at 37° C. to bind and immobilize these proteins or peptides having cell adhesion activity (see Example 6 described later for particulars of immobilization). Subsequently, alveolar type II epithelial cell (T2 cells) suspension was poured, 5×10^4/cm^2 per unit area, and the culture was started in a CO2 culture apparatus.
# T2 cells, 2×10^5/cm^2 per unit area, were seeded on the silicone well wherein the cell adhesion proteins or peptides were immobilized, which had been prepared in an almost same manner as that of Example 2, and static culture was conducted for 1 day. After confirming that the seeded cells confluently spread all over the culture face, horizontal cell stretching was forcibly started at the stretching degree of twenty five percents and at the frequency of 15 times per minute, by using cell culture stretching apparatus (Scholar Tec), and the culture was continued one more day. After the culture was finished, photographs of cell adhesion state were taken with a phase contrast microscope (FIG. 2, top 4 rows).
# T2 cells, 5×10^4/cm^2 per unit area, were seeded on the silicone well wherein the cell adhesion proteins or peptides were immobilized, which had been prepared in an almost same manner as that of Example 2, and static culture was conducted for 3 days. T2 cells grew in a manner similar to that shown in FIG. 1, 3d (results are not shown because they are overlapping). Then, the cells were subjected to the same stimuli of forced stretching as in Example 1, and the culture was continued one more day. After the culture was finished, photographs of cell adhesion state were taken with a phase contrast microscope (FIG. 2, middle 4 rows) (FN, 3dC-1dS, LN, 3dC-1dS, FIB-1, 3dC-1dS, and AG-73, 3dC-1dS).
# Forced stretching culture was conducted for 3 days in an almost same manner as stretching culture of Example 4. After the culture was finished, photographs of cell adhesion state were taken with a phase contrast microscope (FIG. 2, bottom 4 rows) (FN, 3dC-3dS, LN, 3dC-3dS, FIB-1, 3dC-3dS, and AG-73, 3dC-3dS).
# [6] = molecular target: syndecan present on the cell surface of T2 cells (alveolar type II epithelial cells); assay: T2 cell adhesion to FIB-1 and the peptide co-immobilized on MMAC-coated wells, inhibition by free FIB-1 (FIG. 9)
# [7] = molecular target: syndecan present on the cell surface of T2 cells (alveolar type II epithelial cells); assay: T2 cell adhesion to immobilized peptides, competitive inhibition by free peptides (FIGS. 8 and 9)
mixing ratio at the transitional midpoint (peptide to FIB-1) [6],"Binding strength to T2 cells, Ratio to FIB-1 (fold (ratio to FIB-1)) [7]",Molecule,"Inhibition of adhesion of T2 cells to FN, Col I, LN and VN by free peptide [1]",Inhibition by free peptide of T2 cell adhesion to immobilized AG73 [2],Inhibition by free peptide of T2 cell adhesion to immobilized FIB-1 [2],Cell adhesion/spreading on immobilized peptide ([3]; 6-hour culture),"Binding strength to T2 cells, Comprehensive evaluation [4]","Binding strength to T2 cells, Ratio to FIB-1 [4]",Mixing ratio at the transitional midpoint [4],other results
–,–,GNSTISIRAPVY,inhibited adhesion of T2 cells,inhibited the cell adhesion,could inhibit,delay in spreading but sufficient cell adhesion,B,1-2,about 1,–
–,–,KNSFMALYLSKG,inhibited adhesion of T2 cells,inhibited the cell adhesion,could inhibit,delay in spreading but sufficient cell adhesion,B,2,about 1,–
–,–,KPRLQFSLDIQT,inhibited adhesion of T2 cells,inhibited the cell adhesion,–,the cells were spreading,A,10,0.1,–
–,–,RKRLQVQLSIRT,inhibited adhesion of T2 cells,inhibited the cell adhesion,inhibited; also recorded: could inhibit,the cells were spreading,AA,100,0.01,Reorientation of T2 cells under forced stretching [5]: spread in an elongated shape to a direction perpendicular to the direction of forced stretching; Change of type II epithelial cells into a shape like type I epithelial cells [5]: changed into a shape like flat type I epithelial cells; Inhibition of adhesion of T2 cells to cell adhesion proteins by free peptide ([1]; free peptide 0.12 mg/ml): exhibited the inhibitory activity; Cell adhesion/spreading on immobilized peptide ([3]; 24-hour culture): almost all cells had finished spreading
–,–,TLFLAHGRLVFM,inhibited adhesion of T2 cells,inhibited the cell adhesion,could inhibit,the cells were spreading,A,10,0.1,Cell adhesion/spreading on immobilized peptide ([3]; 24-hour culture): almost all cells had finished spreading
–,–,fibronectin [FN],–,–,–,–,–,–,–,Reorientation of T2 cells under forced stretching [5]: not very obvious; Change of type II epithelial cells into a shape like type I epithelial cells [5]: less observed
–,–,laminin-1 [LN],–,–,–,–,–,–,–,Reorientation of T2 cells under forced stretching [5]: not very obvious; Change of type II epithelial cells into a shape like type I epithelial cells [5]: changed into a shape like flat type I epithelial cells
1,–,LVLFLNHGHFVA [A5G77 (Leu-Val-Leu-Phe-Leu-Asn-His-Gly-His-Phe-Val-Ala)],–,–,–,–,–,–,–,–
1,2,KNSFMALYLSKG [hA3G75 (Lys-Asn-Ser-Phe-Met-Ala-Leu-Tyr-Leu-Ser-Lys-Gly)],–,–,–,–,–,–,–,–
0.1,10,TLFLAHGRLVFM [A4G82 (Thr-Leu-Phe-Leu-Ala-His-Gly-Arg-Leu-Val-Phe-Met)],–,–,–,–,–,–,–,–
0.1,10,KPRLQFSLDIQT [A3G72 (Lys-Pro-Arg-Leu-Gln-Phe-Ser-Leu-Asp-Ile-Gln-Thr)],–,–,–,–,–,–,–,–
1,–,GNSTISIRAPVY [hA3G83 (Gly-Asn-Ser-Thr-Ile-Ser-Ile-Arg-Ala-Pro-Val-Tyr)],–,–,–,–,–,–,–,–
–,< 1,VKTEYIKRKAFM [AG81.2 (Val-Lys-Thr-Glu-Tyr-Ile-Lys-Arg-Lys-Ala-Phe-Met)],–,–,–,–,–,–,–,–
